Consider six compounds from article PMC7734798 (ACS Medicinal Chemistry Letters, 2020).

Molecules are shown by their SMILES. Several values for one entry are separate records, joined by “and”; a condition that tells them apart may be missing. Equal entries are not always repeated. Where two headings read alike, the source gives them in different places.

Series [1] in a line: PAMPA-BBB permeation assay. As to conditions: PAMPA-BBB prediction.
The next series has as its system Olig2. Put plainly: Oli-Neu proliferation marker Olig2 expression (Western blot). It is filed as cell-based, mouse. As to conditions: Oli-Neu cells, 5 μM, 48 h. An excerpt:
(§1) OPC proliferation and migration to the CNS injury site as well as their differentiation are critical steps toward remyelination in MS. HDAC activity plays a crucial role in OPC proliferation/differentiation; therefore, HDAC modulation is widely considered a promising therapeutic target for MS.[30] […] Therefore, we tested the effect of our compounds on OPC proliferation and differentiation, through cell counting, measure of filaments, and analysis of proliferation/differentiation markers (Figure 7).
(§2) Oli-Neu cells were grown in SATO medium (DMEM medium, 2 mM glutamine, 10 μg/ml insulin, 5.5 μg/ml transferrin, 38.72 nM sodium selenite, 100 µM putrescine, 520 nM L-thyroxine (T4), 500 nM triiodo-L-thyronine (T3), 200 nM progesterone, 25 μg/ml of gentamycin) supplemented with 1% heat-inactivated horse serum (HS) in a humidified, 5% CO2 incubator at 37°C. Cell culture medium and all chemicals were from Sigma-Aldrich, except for insulin-transferrin-sodium selenite 100X supplement (Life Technologies Corporation). Cells were plated on 96 well plates, previously coated with 10 μg/mL poly-L-lysine (Sigma-Aldrich; 10 μg/ml) at the density of 2.5 x 10 4/0.2 mL medium/well and treated with increasing concentrations of the compounds (0.5, 1, 5 and 10 μM).
After 24 hours, the viability was evaluated through the MTT assay.
(§3) Oli-Neu cells proliferation and differentiation assay
(§4) 48 hours, for cell counting and measure of filaments, 5 random images for each condition were acquired with an Eclipse TS100 (Nikon) microscope using a 10X objective. Cells number and filament length were measured with Fiji ImageJ2 software. After 48 hours for proliferation and 72 hours of treatment for differentiation analysis, cells were lysed in ice-cold lysis buffer (50 mM Tris-HCl pH 7.4, 1% SDS, 0.05% protease inhibitor cocktail; all from Sigma-Aldrich) and protein content was determined by using the Lowry method. […]
(In general: A western blot detects proteins with antibodies after separation by electrophoresis.)

A further series deals with CNPase. Put plainly: Oli-Neu differentiation marker CNPase expression (Western blot). Particulars: Oli-Neu cells, 5 μM, 72 h. The class given is cell-based, mouse.
Text: OPC proliferation and migration to the CNS injury site as well as their differentiation are critical steps toward remyelination in MS. HDAC activity plays a crucial role in OPC proliferation/differentiation; therefore, HDAC modulation is widely considered a promising therapeutic target for MS.[30] […] Therefore, we tested the effect of our compounds on OPC proliferation and differentiation, through cell counting, measure of filaments, and analysis of proliferation/differentiation markers (Figure 7). […]
After 24 hours, the viability was evaluated through the MTT assay. […]
as §4

The test system of a further series is Oli-Neu cells. Put plainly: Oli-Neu cell proliferation and differentiation assay: cell counting and measure of filaments. The class given is cell-based, mouse. As to conditions: 5 μM, 48 h.
Text: as §1
as §2, with “μM). […]” for “μM).”
as §3
48 hours, for cell counting and measure of filaments, 5 random images for each condition were acquired with an Eclipse TS100 (Nikon) microscope using a 10X objective. Cells number and filament length were measured with Fiji ImageJ2 software. […]

Series [2] deals with primary rat cerebellar granule neurons (CGNs). As to conditions: for cell survival/death in CGNs, % mean ± SE of controls (MTT): 24 h treatment.
Series [3] concerns human liver carcinoma immortalized cell line (HepG2). Particulars: 24 h treatment.
The conditions of series [4]: PAMPA. A general note: PAMPA measures passive passage across an artificial lipid membrane.

For the compound `CNC(=C[N+](=O)[O-])NCCSCc1ccc(CN(C)C)o1` [ranitidine, reference compound], the “BBB penetration estimation, CNS (+/−)” value in series [1] is “CNS –”.

As for `CCCC(CCC)C(=O)O` [VPA, valproic acid, reference compound], in the series on Olig2, the “expression of Olig2, marker of OPCs proliferation” value is given as “marked decrease”. Moreover, the “expression of CNPase, marker of differentiation” value with CNPase was “significant increase”. Moreover, in the series on Oli-Neu cells, the Oli-Neu cell number result is “decrease cell number” and the Oli-Neu filament length result is “parallel increase in filament length”. Also, the “neurotoxicity profile in CGNs (in words)” value in series [2] (5-50 μM, 24 h) was “negligible neurotoxicity”.

In the case of `CC/C=C\C/C=C\C/C=C\CCCCCCCC(=O)OCCNC(=O)C(CCC)CCC` [compound 3], the “cell survival/death in CGNs, % mean ± SE of controls (MTT)” value (shortened to “cell survival/death in CGNs, % mean ± SE”) in series [2] (5 μM) was 119 ± 17%; in series [2] (10 μM) it was 116 ± 3%; in series [2] (25 μM) it was 99 ± 17%; in series [2] (50 μM), 41% and 41 ± 6 ^b %. The “cell survival/death in HepG2 cells, % mean ± SE of controls (MTT)” value in series [3] (5 μM) came to 86 ± 10%; in series [3] (10 μM), 92 ± 3%; in series [3] (25 μM) it was 84 ± 10%; in series [3] (50 μM), 75 ± 13%.

In the case of `CC/C=C\C/C=C\C/C=C\CCCCCCCC(=O)OCCOC(=O)C(CCC)CCC` [compound 4], the “cell survival/death in CGNs, % mean ± SE” value in series [2] (5 μM) was 118 ± 16%; in series [2] (10 μM), 114 ± 3%; in series [2] (25 μM) it was 71 ± 8%; in series [2] (50 μM) it was 45% and 45 ± 8 ^b %. In addition, the “cell survival/death in HepG2 cells, % mean ± SE of controls (MTT)” value in series [3] (5 μM) is on record as 95 ± 14%; in series [3] (10 μM) it was 99 ± 5%; in series [3] (25 μM) it was 75 ± 12%; in series [3] (50 μM) it was 74 ± 12%.

Regarding `CC/C=C\C/C=C\C/C=C\CCCCCCCC(=O)O` [ALA, α-linolenic acid, reference compound], the “cell survival/death in CGNs, % mean ± SE” value is 93 ± 13% in series [2] (5 μM); 97 ± 3% in series [2] (10 μM); 79 ± 12% in series [2] (25 μM); 45% and 45 ± 5 ^b % in series [2] (50 μM). Also, the “cell survival/death in HepG2 cells, % mean ± SE of controls (MTT)” value in series [3] (5 μM) is given as 109 ± 17%; in series [3] (10 μM), 90 ± 5%; in series [3] (25 μM), 91 ± 13%; in series [3] (50 μM), 92 ± 9%.

With `Nc1c2c(nc3ccccc13)CCCC2` [tacrine], the “BBB penetration estimation, CNS (+/−)” value in series [4] is given as “CNS +”.
